How the values were obtained:
[1] = biological target: rat brain nicotinic receptor (α7 NAChR) (Rattus norvegicus (Rat), UniProt Q05941); assay type: binding
[2] = Metabolic stability assay in human liver microsomes (HLM); assay type: in vitro ADME; conditions: 1 μM
Method: (§1) Protocol 1: Studies were carried out in human and rat liver microsomes (“HLM” and “RLM,” respectively). Human and rat liver microsomes were purchased from BD Gentest. DMSO stocks were prepared for the test compounds. Aliquots of the DMSO solutions were diluted to 0.5 mM by acetonitrile, then further diluted by liver microsomes/buffer to 1.5 μM. 30 μL of 1.5 μM solutions were mixed with 15 μL of 6 mM NADPH, which had been pre-warmed to 37° C., at a final test compound concentration of 1 μM. The plates were kept in a 37° C. water bath for the duration of the experiment. At each time point (0, 5, 15, 30, 45 minutes), 135 μL of acetonitrile was added into corresponding wells. After the final time point was sampled, the plates were shaken at a vibrator (IKA, MTS 2/4) for 10 min (600 rpm/min) and then centrifuged at 5594 g for 15 min (Thermo Multifuge×3R). Aliquots of the supernatant were removed, diluted 1:1 into distilled water, and analyzed by LC-MS/MS. The peak area response ratio to internal standard (PARR) of the compounds at 5, 15, 30, 45 minutes was compared to the PARR at time 0 to determine the percent of test compound remaining at each time point. Half-lives were calculated using Excel software, fitting to a single-phase exponential decay equation.
(§2) Protocol 2: Studies were carried out in human and rat liver microsomes. Buffer solutions were prepared as follows: Buffer A: 1.0 L of 0.1 M monobasic Potassium Phosphate buffer containing 1.0 mM EDTA; Buffer B: 1.0 L of 0.1 M Dibasic Potassium Phosphate buffer containing 1.0 mM EDTA; Buffer C: 0.1 M Potassium Phosphate buffer, 1.0 mM EDTA, pH 7.4 by titrating 700 mL of buffer B with buffer A while monitoring with a pH meter.
(§3) Reference compound (Ketanserin) and test compound spiking solutions were prepared as follows: 500 μM spiking solution: add 10 μL of 10 mM DMSO stock solution into 190 μL ACN; 1.5 μM spiking solution in microsomes (0.75 mg/mL): add 1.5 μL of 500 μM spiking solution and 18.75 μL of 20 mg/mL liver microsomes into 479.75 μL of Buffer C.
(§4) NADPH stock solution (6 mM) was prepared by dissolving NADPH into buffer C.
(§5) Assay procedure: 30 μL of 1.5 μM spiking solution containing 0.75 mg/mL microsomes solution was dispensed to the wells designated for […]. The plate was pre-incubated at 37° C. for 10 minutes. 15 μL of NADPH stock solution (6 mM) was added to the wells designated as Time 45, and the timer was started. At 30 mM, 15 mM, and 5 mM, 15 μL NADPH stock solution (6 mM) was added to the wells, respectively. At the end of incubation (0 mM), 135 μL of ACN containing IS was added to all the wells. Then 15 μL of NADPH stock solution (6 mM) was added to the wells designated as Time 0. After quenching, the reaction mixtures were centrifuged at 3220 g for […]. Following centrifugation, 50 μL of the supernatant was transferred from each well into a 96-well sample plate containing 50 μL of ultra-pure water (Millipore) for LC/MS analysis. The peak area response (PARR) ratio to internal standard of the compounds at 5, 15, 30, and 45 minutes was compared to the PARR at time 0 to determine the percent of test compound remaining at each time point. Half-lives were calculated using Excel software, fitting to a single-phase exponential decay equation.

[3] = Metabolic stability assay in rat liver microsomes (RLM); assay type: in vitro ADME; conditions: 1 μM
Method: as §1, §2, §3, §4, §5

Human plasma stability = assay type: in vitro ADME; conditions: plasma
Method: Protocol 1: Studies were carried out in human plasma. All plasma was obtained from Bioreclamation and collected on sodium heparin. Plasma was adjusted to pH 7.4. A DMSO stock was first prepared for the test compound. An aliquot of the DMSO solution was dosed into 1 mL of plasma, which had been pre-warmed to 37° C., at a final test compound concentration of 1 μM. The vials were kept in a benchtop Thermomixer® for the duration of the experiment. Aliquots (100 μL) were taken at each time point (0, 15, 30, 60, and 120 minutes) and added to 96-well plates which had been pre-filled with 300 μL of acetonitrile. Samples were stored at 4° C. until the end of the experiment. After the final time point was sampled, the plate was mixed and then centrifuged at 3,000 rpm for 10 minutes. Aliquots of the supernatant were removed, diluted 1:1 into distilled water, and analyzed by LC-MS/MS. The peak area response ratio to internal standard (PARR) of the compound at 15, 30, 60 and 120 minutes was compared to the PARR at time 0 to determine the percent of test compound remaining at each time point. Half-lives were calculated using GraphPad software, fitting to a single-phase exponential decay equation.
Protocol 2: Studies were carried out in plasma. Plasma was prepared under approval of IRB and IACUC on sodium heparin. The pH of plasma was monitored and used within the range of pH 7.4 to pH 8.0. DMSO stocks were prepared for the test compounds. Aliquots of the DMSO solutions were diluted to 0.05 mM by 0.05 mM Sodium phosphate buffer with 0.5% BSA. Then 10 μL of 0.05 mM solutions were dosed into 90 μL of plasma in duplicates (n=2), which had been pre-warmed to 37° C., at a final test compound concentration of 5 μM. The plates were kept in a 37° C. water bath for the duration of the experiment. At each time point (0, 5, 15, 30, 45, 60, and 120 minutes), 400 μL of acetonitrile was added into corresponding wells. After the final time point was sampled, the plates were shaken at the vibrator (IKA, MTS 2/4) for 10 min (600 rpm/min) and then centrifuged at 5594 g for 15 min (Thermo Multifuge×3R). Aliquots of the supernatant were removed, diluted 1:1 into distilled water, and analyzed by LC-MS/MS. The peak area response ratio to internal standard (PARR) of the compounds at 5, 15, 30, 45, 60, and 120 minutes was compared to the PARR at time 0 to determine the percent of test compound remaining at each time point. Half-lives were calculated using Excel software, fitting to a single-phase exponential decay equation.

[4] = Protocol No. 1, human liver microsomes
[5] = Protocol No. 1, rat liver microsomes

Sequence of rat brain nicotinic receptor (α7 NAChR) (Q05941 23-502 limits assumed): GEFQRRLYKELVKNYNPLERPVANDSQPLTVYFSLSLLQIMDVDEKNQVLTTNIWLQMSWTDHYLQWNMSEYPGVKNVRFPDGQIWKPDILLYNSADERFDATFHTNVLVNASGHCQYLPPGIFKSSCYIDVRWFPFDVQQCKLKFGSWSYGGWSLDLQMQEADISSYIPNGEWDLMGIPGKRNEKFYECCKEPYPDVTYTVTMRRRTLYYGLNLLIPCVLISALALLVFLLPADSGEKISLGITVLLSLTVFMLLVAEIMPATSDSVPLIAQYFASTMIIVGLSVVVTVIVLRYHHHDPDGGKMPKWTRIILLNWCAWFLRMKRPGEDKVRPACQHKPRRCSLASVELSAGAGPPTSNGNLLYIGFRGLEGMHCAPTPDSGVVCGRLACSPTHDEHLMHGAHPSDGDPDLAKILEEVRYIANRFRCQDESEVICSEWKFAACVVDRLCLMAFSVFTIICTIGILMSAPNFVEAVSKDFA

Compound | IC50 [1] | Ki [1] | HLM ([2]; human, microsomes) | RLM ([3]; rat, microsomes) | % Remaining @ 2 h (Human plasma stability; human, 2 h, 5 μM) | HLM [2, 4] | RLM [3, 5] | % Remaining @ 2 h (Human plasma stability; Protocol No. 2, 5 μM, 37° C.) | T1/2 (Human plasma stability; Protocol No. 2, 5 μM, 37° C.) | T1/2 (Human plasma stability; human)
O=C(OCC12CCN(CC1)CC2)c1c[nH]c2ccc(F)c(Br)c12 [Compound 67, quinuclidin-4-ylmethyl 4-bromo-5-fluoro-1H-indole-3-carboxylate] | 201 nM | 173 nM | 6.65 mL/min/kg | 594.86 mL/min/kg | 98.92% |  |  |  |  | 
O=C(OCC12CCN(CC1)CC2)c1c[nH]c2cccc(C3CC3)c12 [Compound 61, Quinuclidin-4-ylmethyl 4-cyclopropyl-1H-indole-3-carboxylate] | 1890 nM | 1620 nM | 10.81 mL/min/kg | 434.65 mL/min/kg | 93.59% |  |  |  |  | 
quinuclidin-4-ylmethyl 6-fluoro-4-methoxy-1H-indole-3-carboxylate [Compound 82] | 412 nM | 357 nM |  |  |  | 8 mL/min/kg | 433.66 mL/min/kg | 48.22% | 2.0738 h | 
Cl.O=C(OCC12CCN(CC1)CC2)c1c[nH]c2cc(Cl)cc(Cl)c12 [Compound 71, quinuclidin-4-ylmethyl 4,6-dichloro-1H-indole-3-carboxylate hydrochloride] | 457 nM | 394 nM |  |  |  | 6.768 mL/min/kg | 121.175 mL/min/kg | 72.03% |  | 
COc1cc2c(C(=O)OCC34CCN(CC3)CC4)c[nH]c2cc1Cl [Compound 69, quinuclidin-4-ylmethyl 6-chloro-5-methoxy-1H-indole-3-carboxylate] | 394 nM | 340 nM | 8.8 mL/min/kg | 238.87 mL/min/kg | 78.66% |  |  |  |  | 
Cc1cc2[nH]cc(C(=O)OCC34CCN(CC3)CC4)c2cc1Cl.Cl [Compound 66, quinuclidin-4-ylmethyl 5-chloro-6-methyl-1H-indole-3-carboxylate hydrochloride] | 1190 nM | 1010 nM |  |  |  | 0 mL/min/kg | 934.845 mL/min/kg | 71.77% |  | 
COc1cc2c(C(=O)OCC34CCN(CC3)CC4)c[nH]c2cc1O [Compound 86, quinuclidin-4-ylmethyl 6-hydroxy-5-methoxy-1H-indole-3-carboxylate] |  |  | 7.35 mL/min/kg | 17.38 mL/min/kg | 22.88% |  |  |  |  | 
Cl.O=C(OCC12CCN(CC1)CC2)c1c[nH]c2cc(F)cc(Cl)c12 [Compound 64, quinuclidin-4-ylmethyl 4-chloro-6-fluoro-1H-indole-3-carboxylate hydrochloride] | 337 nM | 291 nM |  |  |  | 2.7474 mL/min/kg | 77.4932 mL/min/kg | 76.61% |  | 
COc1c(C)ccc2[nH]cc(C(=O)OCC34CCN(CC3)CC4)c12 [Compound 75, quinuclidin-4-ylmethyl 4-methoxy-5-methyl-1H-indole-3-carboxylate] | 52.5 nM | 45 nM | 5.749 mL/min/kg | 474.267 mL/min/kg | 120.98% |  |  |  |  | ∞
COc1cc2c(C(=O)OCC34CCN(CC3)CC4)c[nH]c2cc1C.Cl [Compound 79, quinuclidin-4-ylmethyl 5-methoxy-6-methyl-1H-indole-3-carboxylate hydrochloride] |  |  |  |  |  | 10.72 mL/min/kg | 576.18 mL/min/kg | 56.12% |  | 
COc1cc2c(C(=O)OCC34CCN(CC3)CC4)c[nH]c2cc1C#N [Compound 76, quinuclidin-4-ylmethyl 6-cyano-5-methoxy-1H-indole-3-carboxylate] | 643 nM | 552 nM | 20.5897 mL/min/kg | 41.0701 mL/min/kg | 72.92% |  |  |  |  | 
Cc1cc2c(C(=O)OCC34CCN(CC3)CC4)c[nH]c2cc1Cl [Compound 78, quinuclidin-4-ylmethyl 6-chloro-5-methyl-1H-indole-3-carboxylate] | 1130 nM | 970 nM | 0 mL/min/kg | 679.777 mL/min/kg | 77.57% |  |  |  |  | 
Cc1ccc2[nH]cc(C(=O)OCC34CCN(CC3)CC4)c2c1C [Compound 70, quinuclidin-4-ylmethyl 4,5-dimethyl-1H-indole-3-carboxylate] | 315 nM | 272 nM | 0 mL/min/kg | 1349.06 mL/min/kg | 71.56% |  |  |  |  | 
COc1cc(C#N)cc2[nH]cc(C(=O)OCC34CCN(CC3)CC4)c12 [Compound 77, quinuclidin-4-ylmethyl 6-cyano-4-methoxy-1H-indole-3-carboxylate] | 423 nM | 363 nM | 10.4452 mL/min/kg | 87.668 mL/min/kg | 71.03% |  |  |  |  | 
Cc1cc2c(C(=O)OCC34CCN(CC3)CC4)c[nH]c2cc1F [Compound 58, quinuclidin-4-ylmethyl 6-fluoro-5-methyl-1H-indole-3-carboxylate] | 1810 nM | 1550 nM |  |  |  |  |  |  |  | 
Cc1ccc2[nH]cc(C(=O)OCC34CCN(CC3)CC4)c2c1Br [Compound 68, quinuclidin-4-ylmethyl 4-bromo-5-methyl-1H-indole-3-carboxylate] | 266 nM | 229 nM | 3.48 mL/min/kg | 1271.39 mL/min/kg | 103.13% |  |  |  |  | ∞
O=C(OCC12CCN(CC1)CC2)c1c[nH]c2ccc3c(c12)OCCO3 [Compound 81, quinuclidin-4-ylmethyl 2,3-dihydro-7H-[1,4]dioxino[2,3-e]indole-9-carboxylate] |  |  | 5.94 mL/min/kg | 75.96 mL/min/kg | 70.89% |  |  |  |  | 
